Data as given in patent US4029688A, “Carbamic pesticidal compositions” (priority 1974, dated 1977).
In brackets after ≈: the same amount, converted by molar mass.

Assays:
Type in all cases: in vivo
[1] = test system: two-spotted mite (Tetranychus urticae Koch); experiment: Mite Foliage Spray Test; set-up: key to Mite (Spray): C: no control; B: partial control; A: excellent control; details: for Mite (Spray): foliage spray, 500 parts per million, six days; for LC50: Tetranychus urticae, foliar, Table II, side by side comparison, read-out: Mites Spray LD50
Protocol: (§1) Suspensions of the test compounds were prepared by dissolving one gram of compound in 50 milliliters of acetone in which had been dissolved 0.1 gram (10 percent of the weight of compound) of an alkylphenoxy polyethoxyethanol surfactant, as an emulsifying or dispersing agent. The resulting solution was mixed into 150 milliliters of water to give roughly 200 milliliters of a suspension containing the compound in finely divided form. The thus-prepared stock suspension contained 0.5 percent by weight of compound. The test concentrations in parts per million by weight employed in the tests described hereinbelow were obtained by appropriate dilutions of the stock suspension with water. The test procedures were as follows:
(§2) Adults and numphal stages of the two-spotted mite (Tetranychus urticae Koch), reared on Tendergreen bean plants at 80±5 percent relative humidity, were the test organisms. Infested leaves from a stock culture were placed on the primary leaves of two bean plants six to eight inches in height, growing in a 21/2 inch clay pot. 150 -200 Mites, a sufficient number for testing, transferred from the excised leaves to the fresh plants in a period of twenty-four hours. Following the twenty-four hour transfer period, the excised leaves were removed from the infested plants. The test compounds were formulated by diluting the stock suspension with water to give a suspension containing 500 parts of test compound per million parts of final formulation. The potted plants (one pot per compound) were placed on a revolving turntable and sprayed with 100-110 milliliters of test compound formulation by use of a DeVilbiss spray gun set at 40 psig. air pressure. This application, which lasted 25 seconds, was sufficient to wet the plants to run-off. As a control, 100-110 milliliters of a water solution containing acetone and emulsifier in the same concentrations as the test compound formulation, but containing no test compound, were also sprayed on infested plants. The sprayed plants were held at 80±5 percent relative humidity for six days, after which a mortality count of motile forms was made. Microscopic examination for motile forms was made on the leaves of the test plants. Any individual which was capable of locomotion upon prodding was considered living.
(§3) In the tests described above, the pesticidal activity of the compounds against aphid, mite, Southern Armyworm, Bean Beetle, house fly and nematode was rated as follows:
(§4) Comparison tests were conducted to assess the biological and chemical properties of certain representative species of the claimed invention in relation to their corresponding N-methyl carbamate compositions. The test procedures described above were employed in these experiments in order to determine the LD50 (number of parts per million of active ingredients required to achieve fifty percent mortality of the insects tested) for each of the compositions tested. In the case of the aphid and mite tests a side by side comparison was made of the N-methyl carbamate composition versus the corresponding perhalomethylsulfenyl derivative.

[2] = test system: two-spotted mite (Tetranychus urticae Koch); experiment: Mite Systemic Test; set-up: key: C: no control; B: partial control; A: excellent control; details: soil drench, 20 milliliters of test formulation
Protocol: as §1, §2
Systemic treatments were made by drenching 20 milliliters of the test compound formulation into the soil around the roots of bean plants growing in 21/2 inch clay pots. These pots were held in 4 ounce wax paper containers to prevent cross-contamination and loss by leaching. The plants were 4 inches high at the time of treatment and had been infested with mites 24 hours previously. Subsequent steps for testing of the systemic miticidal activity were the same as those described above for the spray method of application.
In the tests described above, the pesticidal activity of the compounds against aphid, mite, Southern Armyworm, Bean Beetle, house fly and nematode was rated as follows: […]

[3] = test system: southern armyworm (Prodenia eridania, (Cram.)); experiment: Southern Armyworm Leaf Spray Test; set-up: key to Armyworm: C: no control; B: partial control; A: excellent control; details: for Armyworm: leaf spray, 500 parts per million, three days; for LC50: Spodoptera eridania, Table II, read-out: Armyworm LD50
Protocol: as §1
Larvae of the southern armyworm (Prodenia eridania, (Cram.)), reared on Tendergreen bean plants at a temperature of 80°±5° F. and a relative humidity of 50±5 percent, constituted the test insects.
The test compounds were formulated by diluting the stock suspension with water to give a suspension containing 500 parts of test compound per million parts of final formulation. Potted Tendergreen bean plants of standard height and age were placed on a revolving turntable and sprayed with 100-110 milliliters of test compound formulation by use of a DeVilbiss spray gun set at 10 psig air pressure. This application, which lasted 25 seconds, was sufficient to wet plants to run-off. As a control, 100-110 milliliters of a water-acetone-emulsifier solution containing no test compound were also sprayed on infested plants. When dry, the paired leaves were separated and each one was placed in a 9 centimeter Petri dish lined with moistened filter paper. Five randomly selected larvae were introduced into each dish and the dishes were closed. The closed dishes were labeled and held at 80-85° F. for three days. Although the larvae could easily consume the whole leaf within twenty-four hours, no more food was added. Larvae which were unable to move the length of the body, even upon stimulation by prodding, were considered dead. Percent mortality was recorded for various concentration levels.
as §3, §4

[4] = test system: Mexican bean beetle (Epilachna varivestis, Muls.); experiment: Mexican Bean Beetle Leaf Spray Test; set-up: key to Beetle: C: no control; B: partial control; A: excellent control; details: for Beetle: leaf spray, 500 parts per million, three days; for LC50: Epilachna varivestis, Table II, read-out: Beetle LD50
Protocol: as §1
Fourth instar larvae of the Mexican bean beetle (Epilachna varivestis, Muls.), reared on Tendergreen bean plants at a temperature of 80°±5° F. and 50±5 percent relative humidity, were the test insects.
The test compounds were formulated by diluting the stock suspension with water to give a suspension containing 500 parts of test compound per million parts of final formulation. Potted Tendergreen bean plants of standard height and age were placed on a revolving turntable and sprayed with 100-110 milliliters of test compound formulation by use of a DeVilbiss spray gun set at 10 psig air pressure. This application, which lasted 25 seconds, was sufficient to wet plants to run-off. As a control, 100-110 milliliters of a water-acetone-emulsifier solution containing no test compound were also sprayed on infested plants. When dry, the paired leaves were separated and each was placed in a 9 centimeter Petri dish lined with moistened filter paper. Five randomly selected larvae were introduced into each dish, and the dishes were closed. The closed dishes were labeled and held at a temperature of 80°±5° F. for three days. Although the larvae could easily consume the leaf within 24 to 48 hours, no more food was added. Larvae which were unable to move the length of the body, even upon stimulation, were considered dead.
as §3, §4

SMILES | Mite (Spray) [1] | Mite (Systemic) [2] | Armyworm [3] | Beetle [4] | LC50 [1] [µg/mL] | LC50 [3] [µg/mL] | LC50 [4] [µg/mL]
CSCC(C)=NOC(=O)N(C)SC(Cl)(Cl)Cl | C | C | C | C |  |  | 
CSCC(=NOC(=O)N(C)SC(Cl)(Cl)Cl)C(C)(C)C | A | A | C | A |  |  | 
CC(CSC(C)(C)C)=NOC(=O)N(C)SC(Cl)(Cl)Cl | C | C | C | C |  |  | 
CC(=NOC(=O)N(C)SC(Cl)(Cl)Cl)C(C)(C)N=[N+]=[N-] | C | C | C | A |  |  | 
CC(=NOC(=O)N(C)SC(Cl)(Cl)Cl)C(C)(C)[N+](=O)[O-] | A | A | B | A |  |  | 
CC(C[N+](=O)[O-])=NOC(=O)N(C)SC(Cl)(Cl)Cl | C | C | C | B |  |  | 
CC(=NOC(=O)N(C)SC(Cl)(Cl)Cl)C(C)(C)C#N | A | A | B | A |  |  | 
COC(C)(C)C(Cl)=NOC(=O)N(C)SC(Cl)(Cl)Cl | A | A | C | A |  |  | 
CCOC(=O)CSC(C)(C)C=NOC(=O)N(C)SC(Cl)(Cl)Cl | C | C | C | B |  |  | 
CCOC(=O)C(C)SC(C)(C)C=NOC(=O)N(C)SC(Cl)(Cl)Cl (centres unmarked) | B | B | C | C |  |  | 
CSC(=NOC(=O)N(C)SC(Cl)(Cl)Cl)C(C)(SC)SC | A | B | C | A |  |  | 
CCOC(=O)CSC(C)=NOC(=O)N(C)SC(Cl)(Cl)Cl | C | C | C | C |  |  | 
CCOC(=O)CCSC(C)=NOC(=O)N(C)SC(Cl)(Cl)Cl | C | C | B | B |  |  | 
CC(=NOC(=O)N(C)SC(Cl)(Cl)Cl)SCCC#N [1-(2-Cyanoethylthio)acetaldehyde O-(N-methyl-N-trichloromethanesulfenylcarbamoyl)oxime] | A |  | A | A | 22 (≈ 62.7 µM) | 6 (≈ 17.1 µM) | 15 (≈ 42.8 µM)
CN(SC(Cl)(Cl)Cl)C(=O)ON=CC(C)(C)C#N [2-Methyl-2-cyanopropionaldehyde O-(N-methyl-N-trichloromethanesulfenylcarbamoyl)oxime] | A | A | A | A | 23 (≈ 72.2 µM) | 50 (≈ 157 µM) | 45 (≈ 141 µM)
CN(SC(Cl)(Cl)Cl)C(=O)ON=CC(C)(C)[S+](C)[O-] (centres unmarked) [2-Methyl-2-methylsulfinylpropionaldehyde O-(N-methyl-N-trichloromethanesulfenylcarbamoyl)oxime] | A | A | A | A |  |  | 
CN(SC(Cl)(Cl)Cl)C(=O)ON=CC(C)(C)S(C)(=O)=O [2-Methyl-2-methylsulfonylpropionaldehyde O-(N-methyl-N-trichloromethanesulfenylcarbamoyl)oxime] | A | C | C | A |  |  | 
CN(SC(Cl)(Cl)Cl)C(=O)ON=CC(C)(C)[N+](=O)[O-] [2-Methyl-2-nitropropionaldehyde O-(N-methyl-N-trichloromethanesulfenylcarbamoyl)oxime] | A | A | A | A | 40 (≈ 118 µM) | 130 (≈ 384 µM) | 17 (≈ 50.2 µM)
CN(SC(F)(F)F)C(=O)ON=CC(C)(C)C#N [drawing 12] | A |  | A | A |  |  | 
